Where no end group is shown, it is not given here.
Assays:
hGLP-1-R = target: T1, hGLP-1-R (Homo sapiens, UniProt P43220); test: GLP-1 receptor efficacy assay (cAMP) in HEK293 cells expressing hGLP-1-R; type: cell-based
T1 construct: expressed in transfected cells
Text: The DNA encoding the Glucagon-R or the GLP-1-R was amplified by PCR using primers encoding terminal restriction sites for subcloning. The 5′-end primers additionally encoded a near Kozak consensus sequence to ensure efficient translation. The PCR products encoding the Glucagon-R or the GLP-1-R were subcloned into a mammalian expression vector. The fidelity of the DNA encoding the Glucagon-R and the GLP-1-R was confirmed by DNA sequencing. As the mammalian expression vector additionally encodes for G418 resistance, transfected cells may be selected by applying selection pressure with G418. […] 48 hr after transfection cells were seeded for limited dilution cloning and selected with 1 mg/ml G418 in the culture medium. […] One Glucagon-R expressing clone and one GLP-1-R expressing clone were chosen for compound profiling.
HEK293 cells expressing the hGlucagon-R, or hGLP-1-R are seeded at 40,000 cells per well in 96-well microtiter plates coated with 0.01% poly-L-lysine and grown for 1 day in culture in […] growth medium. On the day of analysis, growth medium is removed and the cells washed once with 200 μl Tyrode buffer. Cells are incubated in 100 μl Tyrode buffer containing increasing concentrations of test peptides, 100 μM IBMX, and 6 mM glucose for up 15 min at 37° C. The reaction is stopped by addition of 25 μl 0.5 M HCl and incubated on ice for 60 min. The cAMP content is estimated using the FlashPlate® cAMP kit from Perkin-Elmer. EC50 and relative efficacy are estimated by computer aided curve fitting.

[1] = Body weight in diet induced obese (DIO) mice; type: in vivo, C57BI/6J male mice; conditions: HFD (DIO) mice
Description: Efficacious glucagon/GLP-1 receptor agonists are tested on 9-15 weeks old, 40 C57BI/6J male mice which have been kept on a High Fat Diet (HFD)—60% high-fat food (Cat. No. D12492: 20% protein, 20% carbohydrate, and 60% fat, 5.2 kcal/g; Research Diets, New Jersey, USA, for 4 weeks. The high-fat food contains soybean oil (25/773.85 g) and lard (245/773.85 g).
DIO-mice are treated with vehicle or co-agonists for 2-4 weeks by bolus administration (s.c.) twice daily. Body weight is monitored daily throughout the experiment. At the end of the experimental period animals are sacrificed, blood collected for analysis of glycated hemoglobin and a range of hormones and peptides involved in regulation of appetite, food intake, body weight, and energy balances. In addition, the epididymal/perigonadal fat pads and retroperitoneal fat (WAT) as well as the intrascapular Brown Adipose Tissue (BAT) are dissected out and weighed. […]
Following an acclimatization treatment with 100 μl vehicle (PBS) once a day for two weeks DIO-mice were treated with vehicle, control peptides or Compound 3 for 4 weeks by bolus administration (s.c.) twice daily. Body weight was monitored daily throughout the experiment. […]

[2] = administered separately; Dakin et al. 2001; cited from earlier work

T1 sequence (P43220 24-463): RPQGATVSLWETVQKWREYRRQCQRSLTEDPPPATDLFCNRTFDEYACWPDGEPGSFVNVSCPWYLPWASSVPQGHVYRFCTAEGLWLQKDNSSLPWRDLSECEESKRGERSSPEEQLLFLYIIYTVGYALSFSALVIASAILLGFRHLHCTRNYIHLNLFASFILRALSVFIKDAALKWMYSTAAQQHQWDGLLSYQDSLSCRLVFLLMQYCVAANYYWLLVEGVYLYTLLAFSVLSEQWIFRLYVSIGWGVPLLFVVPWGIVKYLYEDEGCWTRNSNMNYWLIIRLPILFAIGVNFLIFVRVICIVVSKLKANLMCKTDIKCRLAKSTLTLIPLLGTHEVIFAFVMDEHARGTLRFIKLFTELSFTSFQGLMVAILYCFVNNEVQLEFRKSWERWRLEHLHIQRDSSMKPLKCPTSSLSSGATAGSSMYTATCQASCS

ratio (GluR / GLP1R EC values) (hGLP-1-R; first test) | EC50[Glu]/EC50[GLP-1] ratio (hGLP-1-R; re-testing) | EC50 (hGLP-1-R; re-testing, cAMP, HEK293 hGLP-1-R) [nM] | Substance | body weight gain ([1]; s.c. bolus 500 nmol/kg twice daily, 28 days, p<0.05 vs vehicle HFD) | weight reducing effect over time ([1]; s.c. twice daily, 4 weeks (FIG. 2)) | effect on food intake [2]
1.27 | 2.13 | 0.23 | H-HSQGTFTSDYSKYLDRARADDFVAWLKST-NH2 [Compound 3] | able to reduce body weight gain comparable to oxyntomodulin treatment | sustained over time comparable to oxyntomodulin treatment and significantly different from exendin-4 treatment | –
– | – | – | KRNRNNIA [IP-1, C-terminal octapeptide of oxyntomodulin] | – | – | fail to affect food intake

Source: patent US7994122B2, “Glucagon analogues” (Zealand Pharma A/S, priority 2007, dated 2011)
